Test results as given in US6462023B1, “Cytostatic agents” (British Biotech Pharmaceuticals, Ltd., priority 1988, dated 2002).
Where two headings read alike, the source gives them in different places.

Assays:
[1] = tested on: histiocytic lymphoma (U937); assay: cell proliferation assay ([methyl-3H] thymidine incorporation), U937; assay type: cell-based, human; conditions: Homo sapiens, U-937, 72 hours in culture, n=6, read-out: U937: percentage of control 3[H] Thymidine incorporation
Description: (§1) Two human cell lines namely a histiocytic lymphoma (U937) and a melanoma (RPMI-7951) were seeded into 30 mm^2 tissue culture wells, in the appropriate culture medium supplemented with 10% fetal calf serum at a density of 250 cells/mm^2. Six hours later the test compounds were added in the same culture medium to the cells to give a final concentration of 6 μM. Control wells contained cells supplemented with the same culture medium containing the equivalent amount of drug vehicle, which in this case was DMSO at a final concentration of 0.08%. After 72 hours in culture the cells were pulsed for 3 hours with [methyl-^3[H] Thymidine] (2 μCi/ml) and then harvested onto filter mats and DNA associated radioactivity counted. Results are expressed as percentage of control ^3[H] Thymidine incorporation (n=6±1 stdv).
Further examples were tested in the U937 assay described above at 6 μM and the results, expressed as percentage of control ^3[H] Thymidine incorporation (n=6±1 stdv), are set out in the following Table 2.
as §1, with “A” for “Two”, “line,” for “lines”, “(U937), was” for “(U937) and a melanoma (RPMI-7951) were”, “30MM^2” for “30 mm^2”, “cellS/MM^2.” for “cells/mm^2.”, “were” for “are”

melanoma (RPMI-7951) = assay: cell proliferation assay ([methyl-3H] thymidine incorporation), RPMI-7951; assay type: cell-based, human; conditions: Table 1; final concentration 6 μM; 72 hours in culture, 3 hours pulse; n=6
Description: as §1

[2] = Table 1, final concentration 6 μM, 3 hours pulse

Row | SMILES | activity at 6 µM [1, 2] | RPMI: percentage of control 3[H] Thymidine incorporation (melanoma (RPMI-7951)) | activity at 6 µM ([1]; Table 2, 6 μM)
1 | C=CC[C@H](C(=O)NO)[C@@H](CC(C)C)C(=O)N[C@@H](Cc1ccccc1)C(=O)OC [Example 1, 2S-(3S-Hydroxycarbamoyl-2R-isobutyl-hex-5-enoylamino)-3-phenylpropionic acid methyl ester] | 7% | 40 percentage of control | –
2 | C=CC[C@H](C(=O)NO)[C@@H](CC(C)C)C(=O)N[C@@H](Cc1ccccc1)C(=O)OCC [Example 2, 2S-(3S-Hydroxycarbamoyl-2R-isobutyl-hex-5-enoylamino)-3-phenylpropionic acid ethyl ester] | 7% | 37 percentage of control | –
3 | C=CC[C@H](C(=O)NO)[C@@H](CC(C)C)C(=O)N[C@@H](Cc1ccccc1)C(=O)OC(C)C [Example 3, 2S-(3S-Hydroxycarbamoyl-2R-isobutyl-hex-5-enoylamino)-3-phenylpropionic acid isopropyl ester] | 2.5% | 27 percentage of control | –
4 | COC(=O)[C@H](Cc1ccccc1)NC(=O)[C@H](CC(C)C)[C@H](C)C(=O)NO [Example 5, 3R-(2-Phenyl-1S-methylcarboxy-ethylcarbamoyl)-2S, 5-dimethylhexanohydroxamic acid] | 19% | 82 percentage of control | –
5 | C=CC[C@H](C(=O)NO)[C@@H](CC(C)C)C(=O)N[C@@H](Cc1ccccc1)C(=O)OC1CCOC1 (stereo partly drawn) [Example 35, 2S-(3S-Hydroxycarbamoyl-2R-isobutyl-hex-5-enoylamino)-3-phenylpropionic acid tetrahydro-furan-3(R, S)-yl ester] | – | – | 14%
6 | C=CC[C@H](C(=O)NO)[C@@H](CC(C)C)C(=O)N[C@H](C(=O)OC1CCCC1)C(C)(C)C [Example 36, 2S-(3S-Hydroxycarbamoyl-2R-isobutyl-hex-5-enoylamino)-3,3-dimethyl-butyric acid cyclopentyl ester] | – | – | 51%
7 | CC(C)C[C@@H](C(=O)N[C@@H](Cc1ccccc1)C(=O)OC1CCCC1)[C@@H](C(=O)NO)C1CCCC1 [Example 37, 2S-[2R-(1S-Cyclopentyl-hydroxycarbamoyl-methyl)-4-methyl-pentanoylamino]-3-phenyl-propionic acid cyclopentyl ester] | – | – | 0%
8 | C#CC[C@@H](C(=O)N[C@@H](Cc1ccccc1)C(=O)OC1CCCC1)[C@H](O)C(=O)NO [Example 38, 2S-[2R-(1S-Hydroxy-hydroxycarbamoyl-methyl)-pent-4-ynoylamino]-3-phenylpropionic acid cyclopentyl ester] | – | – | 37%
9 | C=CC[C@H](C(=O)NO)[C@@H](CC(C)C)C(=O)N[C@@H](Cc1cccnc1)C(=O)OC1CCCC1 [Example 39, 2S-(3S-Hydroxycarbamoyl-2R-isobutyl-hex-5-enoylamino)-3-pyridin-3-yl-propionic acid cyclopentyl ester] | – | – | 26%
10 | C=CC[C@H](C(=O)NO)[C@@H](CC(C)C)C(=O)N[C@@H](COC(C)(C)C)C(=O)OC1CCCC1 [Example 40, 3-tert-Butoxy-2S-(3S-hydroxcarbamoyl-2R-isobutyl-hex-5-enoylamino)-propionic acid cyclopentyl ester] | – | – | 0%
11 | C=CC[C@H](C(=O)NO)[C@@H](CC(C)C)C(=O)N[C@H](C(=O)OC1CCCC1)c1ccccc1 [Example 41, 2S-(3S-Hydroxycarbamoyl-2R-isobutyl-hex-5-enoylamino)-2-phenylethanoic acid cylcopentyl ester] | – | – | 0%
12 | O=C(OC1CCCC1)[C@H](Cc1ccccc1)NC(=O)[C@H](CC#Cc1ccccc1Cl)[C@H](O)C(=O)NO [Example 42, 2S-[5-(2-Chlorophenyl)-2R-(1S-hydroxy-hydroxycarbamoyl-methyl)-pent-4-ynoylamino]-3-phenylpropionic acid cyclopentyl ester] | – | – | 0%
